The results in this text go back to ChEMBL document CHEMBL1129052, “2-[(2-Aminobenzyl)sulfinyl]-1-(2-pyridyl)-1,4,5,6-tetrahydrocyclopent[d]imidazoles as a novel class of gastric H+/K+-ATPase inhibitors” (J Med Chem, 1996).

Broadly, the inhibition is how much of the control response was suppressed. Higher therefore signals a response far below the control. Broadly, the IC50 is the midpoint of a concentration-inhibition curve. High values mean weaker potency, low ones greater potency.

Assay [1] addresses Potassium-transporting ATPase (Rattus norvegicus) (UniProt P09626+P18598). The experiment in a line: Gastric antisecretory activity was tested in rats at 30 mg/kg, po expressed as the percentage of inhibition against the acid output of the control group. The class given is functional, organism-based. Further details: dose 30 mg/kg; call rule not given here.
Assay [2] has as its target Potassium-transporting ATPase (Sus scrofa, UniProt P19156). The experiment in a line: In vitro inhibition against H+/K+ ATPase from porcine gastric mucosal membrane vesicles. It counts as tissue-based, Gastric mucosa.
Assay [3] concerns the target Potassium-transporting ATPase (Sus scrofa, UniProt P18434+P19156). The assay is described as follows: Inhibition of H+/K+ ATPase from porcine gastric mucosal membrane vesicles. The class given is tissue-based, Gastric mucosa.

Molecules are shown by their SMILES. Where only a bound is given, the exact number is not on record here.

Potassium-transporting ATPase (Sus scrofa, UniProt P18434+P19156), sequence (P18434 whole entry): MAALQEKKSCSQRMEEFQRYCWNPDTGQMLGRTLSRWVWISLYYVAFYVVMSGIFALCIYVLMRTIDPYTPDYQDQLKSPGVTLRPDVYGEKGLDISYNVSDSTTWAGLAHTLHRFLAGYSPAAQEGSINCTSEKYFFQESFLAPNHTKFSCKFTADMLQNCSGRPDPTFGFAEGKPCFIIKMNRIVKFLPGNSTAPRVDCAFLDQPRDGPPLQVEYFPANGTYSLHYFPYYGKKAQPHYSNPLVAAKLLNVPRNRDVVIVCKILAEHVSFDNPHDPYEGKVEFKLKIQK
Potassium-transporting ATPase (Sus scrofa, UniProt P18434+P19156), sequence (P19156 whole entry): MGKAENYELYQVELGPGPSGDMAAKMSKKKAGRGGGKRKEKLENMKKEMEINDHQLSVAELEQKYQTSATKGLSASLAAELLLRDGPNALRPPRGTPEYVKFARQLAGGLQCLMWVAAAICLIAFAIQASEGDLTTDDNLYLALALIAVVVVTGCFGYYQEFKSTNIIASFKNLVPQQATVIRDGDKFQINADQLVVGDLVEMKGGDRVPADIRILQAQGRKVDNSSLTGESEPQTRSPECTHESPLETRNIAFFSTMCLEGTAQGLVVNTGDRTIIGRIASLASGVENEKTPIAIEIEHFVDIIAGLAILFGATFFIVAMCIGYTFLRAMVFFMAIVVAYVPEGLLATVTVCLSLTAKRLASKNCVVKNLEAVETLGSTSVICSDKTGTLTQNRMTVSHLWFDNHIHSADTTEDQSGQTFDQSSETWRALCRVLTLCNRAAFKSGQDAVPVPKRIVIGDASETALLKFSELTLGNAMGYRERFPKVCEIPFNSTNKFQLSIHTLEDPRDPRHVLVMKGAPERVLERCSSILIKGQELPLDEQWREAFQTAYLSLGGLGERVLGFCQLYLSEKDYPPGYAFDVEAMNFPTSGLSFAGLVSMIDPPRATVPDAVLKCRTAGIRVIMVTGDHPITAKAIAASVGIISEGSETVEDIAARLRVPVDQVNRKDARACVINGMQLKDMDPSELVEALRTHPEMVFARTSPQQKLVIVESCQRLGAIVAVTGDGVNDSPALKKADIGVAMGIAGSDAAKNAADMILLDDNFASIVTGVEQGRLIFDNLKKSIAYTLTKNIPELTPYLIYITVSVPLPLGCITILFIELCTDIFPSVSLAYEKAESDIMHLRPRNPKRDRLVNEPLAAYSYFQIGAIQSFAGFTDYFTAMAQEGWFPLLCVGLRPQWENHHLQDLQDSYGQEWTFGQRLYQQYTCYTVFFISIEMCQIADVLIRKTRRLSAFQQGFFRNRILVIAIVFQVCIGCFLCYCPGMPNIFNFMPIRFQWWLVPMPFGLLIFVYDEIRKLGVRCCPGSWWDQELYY
Potassium-transporting ATPase (Sus scrofa, UniProt P19156), sequence (P18434 whole entry): as the sequence (P18434 whole entry) above
Potassium-transporting ATPase (Sus scrofa, UniProt P19156), sequence (P19156 whole entry): as the sequence (P19156 whole entry) above

`CNc1ccccc1C[S+]([O-])c1nccn1-c1ccccn1` (stereo unspecified) showed an inhibition in assay [1] of 54%. This molecule also showed an IC50 in assay [2] of 7 µM.

With `[O-][S+](Cc1ccccc1N1CCCCC1)c1nccn1-c1ccccn1` (stereo unspecified), the IC50 result in assay [3] is “Not Active”. In assay [1], this molecule gave an inhibition of 100%. On the same counts, the results for `COc1cccnc1-n1ccnc1[S+]([O-])Cc1ccccc1N1CCCCC1` (stereo unspecified) are “Not Active” and 62%. In assay [1], `CN(C)c1ccccc1C[S+]([O-])c1nccn1Cc1ccccn1` (stereo unspecified) had an inhibition of 100%. This molecule also returned an IC50 in assay [2] of 46 µM. In the case of `COc1cc(C)nc(-n2ccnc2[S+]([O-])Cc2ccccc2N(C)C)c1` (stereo unspecified), the inhibition in assay [1] was determined as 59%. In assay [2], this molecule registered a half-inhibitory concentration (IC50) of 3.4 µM. The like results for `CN(C)c1ccccc1C[S+]([O-])c1nccn1-c1ccc([N+](=O)[O-])cn1` (stereo unspecified) were, in that order, 0% and 60 µM.

In assay [1], `COc1cccnc1-n1ccnc1[S+]([O-])Cc1ccccc1N` (stereo unspecified) registered an inhibition of 79%. In assay [2], the midpoint of inhibition, the IC50, lay at 100 µM.

In assay [1], `CN(C)c1ccccc1C[S+]([O-])c1nc2c(n1Cc1ccccn1)CCC2` (stereo unspecified) had an inhibition of 12%. In assay [2], half-maximal inhibition (IC50) required 55 µM.

For `[O-][S+](Cc1ccccc1N1CCOCC1)c1nccn1-c1ccccn1` (stereo unspecified), the IC50 result in assay [3] is reported as “Not Active”. For the same molecule, the inhibition in assay [1] was found to be 90%. Molecule `CN(C)c1ccccc1C[S+]([O-])c1nccn1-c1nccc2ccccc12` (stereo unspecified) gave an inhibition in assay [1] of 65%. The molecule further had an IC50 in assay [2] of 43 µM. Consider `Cc1ccc(-n2ccnc2[S+]([O-])Cc2ccccc2N(C)C)nc1` (stereo unspecified), for which the inhibition in assay [1] is 47%. Besides, in assay [2], the IC50 was 44 µM. The like results for `COc1cccnc1-n1ccnc1[S+]([O-])Cc1ccccc1N(C)C` (stereo unspecified) were, in that order, 100% and 33 µM. The like results for `CN(C)c1ccccc1C[S+]([O-])c1nc2c(n1-c1ccccc1)CCC2` (stereo unspecified) were, in that order, 20% and 68 µM. Take `CN(C)c1ccccc1C[S+]([O-])c1nccn1-c1cccnc1` (stereo unspecified): the half-inhibitory concentration (IC50) entry in assay [3] was “Not Active”. The same molecule registered an inhibition in assay [1] of 30%.

In turn, `CC(=O)Oc1cccnc1-n1ccnc1[S+]([O-])Cc1ccccc1N(C)C` (stereo unspecified) yielded an inhibition in assay [1] of 2%. Further, in assay [2], the midpoint of inhibition, the IC50, lay at 12 µM. In the case of `CN(C)c1ccccc1C[S+]([O-])c1nc2c(n1-c1ccccn1)CCCC2` (stereo unspecified), the inhibition in assay [1] was found to be 12%. Moreover, the IC50 in assay [2] turned out to be 59 µM. On to `CCN(CC)c1ccccc1C[S+]([O-])c1nc2c(n1-c1ccncc1)CCC2` (stereo unspecified), for which the half-maximal inhibitory concentration (IC50) entry in assay [3] is “Not Active”. Besides, the inhibition in assay [1] was 0%. For the molecule `CCN(CC)c1ccccc1C[S+]([O-])c1nc2c(n1-c1ccccn1)CCC2` (stereo unspecified), the inhibition in assay [1] is 98%. In assay [2], this molecule had an IC50 of 11 µM. On the same counts, the results for `CN(C)c1ccccc1C[S+]([O-])c1nccn1-c1ccc(N)cn1` (stereo unspecified) are 48% and 5.7 µM.

Consider `CN(C)c1ccccc1C[S+]([O-])c1nc(-c2ccccc2)cn1C` (stereo unspecified), for which the IC50 entry in assay [3] is “Not Active”. In addition, in assay [1], the inhibition stood at 0%. For the molecule `CN(C)c1ccccc1C[S+]([O-])c1nc2c(n1Cc1ccccc1)CCC2` (stereo unspecified), in assay [1], the inhibition worked out at 42%. In assay [2], this molecule showed an IC50 of 28 µM. The like results for `CN(C)c1ccccc1C[S+]([O-])c1nccn1Cc1ccccc1` (stereo unspecified) were, in that order, 72% and 14 µM. With `CC(=O)Nc1ccccc1C[S+]([O-])c1nccn1-c1ccccn1` (stereo unspecified), the IC50 result in assay [3] is listed as “Not Active”. Moreover, the inhibition in assay [1] was 99%. For the molecule `CC(C)Oc1cccnc1-n1ccnc1[S+]([O-])Cc1ccccc1N(C)C` (stereo unspecified), the inhibition in assay [1] was 69%. It took 16 µM to reach half-maximal inhibition in assay [2] (IC50). The like results for `COc1cccc(-n2ccnc2[S+]([O-])Cc2ccccc2N(C)C)n1` (stereo unspecified) were, in that order, 0% and 13 µM. On the same counts, the results for `COc1ccnc(-n2ccnc2[S+]([O-])Cc2ccccc2N(C)C)c1` (stereo unspecified) are 95% and 2.6 µM. The molecule `COc1cnc(-n2ccnc2[S+]([O-])Cc2ccccc2N(C)C)cc1OC` (stereo unspecified) gave an inhibition in assay [1] of 13%. Also, in assay [2], it took 12 µM to reach half-maximal inhibition (IC50). For the molecule `[O-][S+](Cc1ccccc1-n1cccc1)c1nc2c(n1-c1ccccn1)CCC2` (stereo unspecified), in assay [3], the IC50 entry is given as “Not Active”. The inhibition in assay [1] turned out to be 21%. In assay [1], `Cc1ccnc(-n2ccnc2[S+]([O-])Cc2ccccc2N(C)C)c1` (stereo unspecified) had an inhibition of 79%. In assay [2], the IC50 came to 2.5 µM. `CN(C)c1ccccc1C[S+]([O-])c1ncc(-c2ccccc2)n1C` (stereo unspecified): in assay [3], the IC50 result is “Not Active”. The same molecule showed an inhibition in assay [1] of 0%. The like results for `COc1cccnc1-n1ccnc1[S+]([O-])Cc1ccccc1NC(C)=O` (stereo unspecified) were, in that order, “Not Active” and 90%. Take `CN(C)c1ccccc1C[S+]([O-])c1nccn1C` (stereo unspecified): in assay [1], the inhibition came to 98%. The same molecule returned a half-inhibitory concentration (IC50) in assay [2] of 32 µM. Consider `CN(C)c1ccccc1C[S+]([O-])c1nccn1-c1cnccn1` (stereo unspecified), for which the IC50 result in assay [3] is given as “Not Active”. This molecule also had an inhibition in assay [1] of 30%. `CCN(CC)c1ccccc1C[S+]([O-])c1nccn1-c1ncccc1C` (stereo unspecified): in assay [1], the inhibition turned out to be 100%. The molecule further gave an IC50 in assay [2] of 100 µM.

Molecule `CN(C)c1ccccc1C[S+]([O-])c1nccn1-c1ccncc1` (stereo unspecified) showed an inhibition in assay [1] of 100%. Further, in assay [2], the IC50 was found to be 36 µM.

For the molecule `COc1cccnc1-n1c([S+]([O-])Cc2ccccc2N(C)C)nc2c1CCC2` (stereo unspecified), the inhibition in assay [1] is 73%. The same molecule had an IC50 in assay [2] of 95 µM. On the same counts, the results for `CN(C)c1ccccc1C[S+]([O-])c1nccn1-c1ccc(C#N)cn1` (stereo unspecified) are 0% and 35 µM. For the molecule `Cc1cccnc1-n1ccnc1[S+]([O-])Cc1ccccc1N` (stereo unspecified), in assay [1], the inhibition turned out to be 98%. The molecule also displayed an IC50 in assay [2] of 98 µM.

Take `CNc1ccccc1C[S+]([O-])c1nccn1-c1ncccc1C` (stereo unspecified): the 50% inhibitory concentration (IC50) in assay [2] is 7.5 µM. For the molecule `Cc1cccnc1-n1ccnc1[S+]([O-])Cc1ccccc1N1CCOCC1` (stereo unspecified), the IC50 entry in assay [3] is reported as “Not Active”. In assay [1], this molecule displayed an inhibition of 100%. `CN(C)c1ccccc1C[S+]([O-])c1nccn1-c1ccc(Br)cn1` (stereo unspecified): the inhibition in assay [1] is 0%. `CCN(CC)c1ccccc1C[S+]([O-])c1nccn1-c1ccccn1` (stereo unspecified) returned an inhibition in assay [1] of 96%. The molecule further had an IC50 in assay [2] of 31 µM. With `CN(C)c1ccccc1C[S+]([O-])c1nc(-c2ccccc2)c(-c2ccccc2)[nH]1` (stereo unspecified), the half-inhibitory concentration (IC50) result in assay [3] is listed as “Not Active”. In assay [1], this molecule came in with an inhibition of 0%. The like results for `CCN(CC)c1ccccc1C[S+]([O-])c1nc2c(n1-c1ncccc1C)CCC2` (stereo unspecified) were, in that order, “Not Active” and 53%. Molecule `CN(C)c1ccccc1C[S+]([O-])c1nccn1-c1ccc(Cl)cn1` (stereo unspecified) yielded an inhibition in assay [1] of 0%. For the same molecule, inhibition in assay [2] was half-maximal at 13 µM (IC50). The like results for `CNc1ccccc1C[S+]([O-])c1nccn1-c1ncccc1OC` (stereo unspecified) were, in that order, 83% and 6 µM. Turning to `CCNc1ccccc1C[S+]([O-])c1nccn1-c1ncccc1C` (stereo unspecified), the inhibition in assay [1] came out at 100%. The molecule also showed an IC50 in assay [2] of 18 µM. As for `[O-][S+](Cc1ccccc1-n1cccn1)c1nccn1-c1ccccn1` (stereo unspecified), the half-inhibitory concentration (IC50) entry in assay [3] is “Not Active”. The inhibition in assay [1] turned out to be 0%.

In the case of `CC(=O)Nc1ccccc1C[S+]([O-])c1nc2c(n1-c1ccccn1)CCC2` (stereo unspecified), the IC50 entry in assay [3] is “Not Active”. For the same molecule, the inhibition in assay [1] is 75%. Regarding `COc1cccnc1-n1ccnc1[S+]([O-])Cc1ccccc1N1CCOCC1` (stereo unspecified), the IC50 entry in assay [3] is “Not Active”. Further, the inhibition in assay [1] was found to be 85%.

As to `Cc1cccnc1-n1c([S+]([O-])Cc2ccccc2N(C)C)nc2c1CCC2` (stereo unspecified), the inhibition in assay [1] is 87%. For the same molecule, in assay [2], the IC50 was more than 100 µM. The like results for `CNc1ccccc1C[S+]([O-])c1nc2c(n1-c1ncccc1C)CCC2` (stereo unspecified) were, in that order, 90% and 81 µM. The like results for `Nc1ccccc1C[S+]([O-])c1nccn1-c1ccccn1` (stereo unspecified) were, in that order, 29% and 27 µM. The like results for `CN(C)c1ccccc1C[S+]([O-])c1nccn1CCc1ccccn1` (stereo unspecified) were, in that order, 87% and 44 µM. As for `CN(C)c1ccccc1C[S+]([O-])c1nccn1-c1ccccc1` (stereo unspecified), in assay [1], the inhibition turned out to be 9%. The IC50 in assay [2] was determined as 68 µM. The like results for `CN(C)c1ccccc1C[S+]([O-])c1nc2c(n1-c1ccccn1)CCC2` (stereo unspecified) were, in that order, 97% and 32 µM. The like results for `CN(C)c1ccccc1C[S+]([O-])c1ncc[nH]1` (stereo unspecified) were, in that order, 80% and 32 µM. On the same counts, the results for `CC(=O)Nc1ccc(-n2ccnc2[S+]([O-])Cc2ccccc2N(C)C)nc1` (stereo unspecified) are 64% and 20 µM.

The molecule `CCNc1ccccc1C[S+]([O-])c1nccn1-c1ncccc1OC` (stereo unspecified) came in with an inhibition in assay [1] of 82%. The molecule also had an IC50 in assay [2] of 7.5 µM. In turn, `Cc1cc(C)nc(-n2ccnc2[S+]([O-])Cc2ccccc2N(C)C)c1` (stereo unspecified) registered an inhibition in assay [1] of 0%. The molecule also gave a 50% inhibitory concentration (IC50) in assay [2] of 11 µM.

With `Cc1cccc(-n2ccnc2[S+]([O-])Cc2ccccc2N(C)C)n1` (stereo unspecified), the inhibition in assay [1] turned out to be 57%. For the same molecule, in assay [2], the IC50 amounted to 14 µM.

Regarding `CN(C)c1ccccc1C[S+]([O-])c1nccn1-c1cc(OCC(F)(F)F)ccn1` (stereo unspecified), in assay [1], the inhibition turned out to be 11%. The half-maximal inhibitory concentration (IC50) in assay [2] is 6.8 µM. On the same counts, the results for `CN(C)c1ccccc1C[S+]([O-])c1nccn1-c1ccc(C(F)(F)F)cn1` (stereo unspecified) are 36% and 7.4 µM. On the same counts, the results for `CN(C)c1ccccc1C[S+]([O-])c1nccn1-c1ncccc1O` (stereo unspecified) are 1% and 4.8 µM. The like results for `COc1ccc(-n2ccnc2[S+]([O-])Cc2ccccc2N(C)C)nc1` (stereo unspecified) were, in that order, 98% and 12 µM. For the molecule `Cc1cc(Br)cnc1-n1ccnc1[S+]([O-])Cc1ccccc1N(C)C` (stereo unspecified), the inhibition in assay [1] was 46%. This molecule also gave an IC50 in assay [2] of 50 µM. On the same counts, the results for `Cc1cccnc1-n1ccnc1[S+]([O-])Cc1ccccc1N(C)C` (stereo unspecified) are 100% and 33 µM.

Turning to `CN(C)c1ccccc1C[S+]([O-])c1nccn1-c1ncccc1OCc1ccccc1` (stereo unspecified), the inhibition in assay [1] turned out to be 34%. In addition, 16 µM corresponded to half-maximal inhibition in assay [2] (IC50).

In assay [1], `CN(C)c1ccccc1C[S+]([O-])c1nccn1-c1ccccn1` (stereo unspecified) gave an inhibition of 76%. In assay [2], this molecule showed an IC50 of 5.5 µM.
